Measurements published in ChEMBL document CHEMBL1201862, “PubChem BioAssay data set” (2004).
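Tested at 5 concentrations; 48 h exposure; 96-well plates; endpoints linearly interpolated, else capped at highest concentration. Abbreviation: GI50, concentration required for 50% inhibition of growth.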 Calls of active or inactive are those of the source. Cut-off read from the data, not from the text of the source: active = GI50 up to about 1.1 µM and inactive = higher.

Columns and labels:
Experiment in all cases: NCI tumour cell line growth inhibition, 48 h
ACHN = system: ACHN
BT-549 = system: BT-549
COLO 205 = system: COLO 205
HCT-116 = system: HCT-116
HL-60 = system: HL-60
HT-29 = system: HT-29
IGROV-1 = system: IGROV-1
KM12 = system: KM12
M14 = system: M14
MDA-MB-435 = system: MDA-MB-435
MOLT-4 = system: MOLT-4
SF-295 = system: SF-295
SK-MEL-28 = system: SK-MEL-28
SK-MEL-5 = system: SK-MEL-5
SNB-75 = system: SNB-75
SR = system: SR
Malme-3M = system: Malme-3M
NCI-H23 = system: NCI-H23
OVCAR-3 = system: OVCAR-3
HOP-92 = system: HOP-92

| SMILES | GI50 (ACHN) | GI50 (BT-549) | GI50 (COLO 205) | GI50 (HCT-116) | GI50 (HL-60) | GI50 (HT-29) | GI50 (IGROV-1) | GI50 (KM12) | GI50 (M14) | GI50 (MDA-MB-435) | GI50 (MOLT-4) | GI50 (SF-295) | GI50 (SK-MEL-28) | GI50 (SK-MEL-5) | GI50 (SNB-75) | GI50 (SR) | GI50 (Malme-3M) | GI50 (NCI-H23) | GI50 (OVCAR-3) | GI50 (HOP-92) |
| --- | --- | --- | --- | --- | --- | --- | --- | --- | --- | --- | --- | --- | --- | --- | --- | --- | --- | --- | --- | --- |
| C/C(=C\COP(=O)(O)OP(=O)(O)O)CC/C=C(\C)CNc1ccccc1 | > 50 µM (inactive) | 9.16 µM (inactive) | > 50 µM (inactive) | > 50 µM (inactive) | 1.05 µM (active) | > 50 µM (inactive) | 11 µM (inactive) | > 50 µM (inactive) | > 50 µM (inactive) | > 50 µM (inactive) | 20.1 µM (inactive) | > 50 µM (inactive) | > 50 µM (inactive) | 26.9 µM (inactive) | 27.5 µM (inactive) | 0.0893 µM (active) |  |  |  |  |
| COc1ccc(N[S+]([O-])c2c(C)cc(C)cc2C)cc1 (configuration not stated) | 43.7 µM (inactive) | 1.79 µM (inactive) | > 100 µM (inactive) | 14.4 µM (inactive) | 33 µM (inactive) | 46.1 µM (inactive) | 22.5 µM (inactive) | 22.5 µM (inactive) | 77.8 µM (inactive) | 21.2 µM (inactive) | 40.1 µM (inactive) | > 100 µM (inactive) | > 100 µM (inactive) | 23.8 µM (inactive) |  | 35.7 µM (inactive) | 20.3 µM (inactive) | > 100 µM (inactive) | 61.9 µM (inactive) |  |
| NC(=O)c1nnc2cc(F)ccc2c1N | 80.4 µM (inactive) | 84.9 µM (inactive) | > 100 µM (inactive) | > 100 µM (inactive) | > 100 µM (inactive) | > 100 µM (inactive) | > 100 µM (inactive) | > 100 µM (inactive) | > 100 µM (inactive) | > 100 µM (inactive) | > 100 µM (inactive) | > 100 µM (inactive) |  | > 100 µM (inactive) | > 100 µM (inactive) | > 100 µM (inactive) | > 100 µM (inactive) | > 100 µM (inactive) | > 100 µM (inactive) |  |
| c1ccc2c(c1)SCCCS2 |  | > 100 µM (inactive) | > 100 µM (inactive) | > 100 µM (inactive) | > 100 µM (inactive) | > 100 µM (inactive) | > 100 µM (inactive) | > 100 µM (inactive) | > 100 µM (inactive) | > 100 µM (inactive) | > 100 µM (inactive) | > 100 µM (inactive) | > 100 µM (inactive) | > 100 µM (inactive) | > 100 µM (inactive) | > 100 µM (inactive) |  | > 100 µM (inactive) | > 100 µM (inactive) | 22.4 µM (inactive) |
| O=[As](O)(O)c1ccc2nc3cc([As](=O)(O)O)ccc3nc2c1 | > 100 µM (inactive) | > 100 µM (inactive) |  | > 100 µM (inactive) |  | > 100 µM (inactive) | > 100 µM (inactive) | > 100 µM (inactive) | > 100 µM (inactive) | > 100 µM (inactive) | > 100 µM (inactive) | > 100 µM (inactive) | > 100 µM (inactive) | > 100 µM (inactive) | > 100 µM (inactive) | > 100 µM (inactive) | > 100 µM (inactive) | > 100 µM (inactive) | > 100 µM (inactive) | > 100 µM (inactive) |
| CCOc1ccc2c(c1)c(CC(=O)O)cn2C | > 100 µM (inactive) | > 100 µM (inactive) | > 100 µM (inactive) | > 100 µM (inactive) | > 100 µM (inactive) | > 100 µM (inactive) |  | > 100 µM (inactive) | > 100 µM (inactive) | > 100 µM (inactive) | > 100 µM (inactive) | > 100 µM (inactive) | > 100 µM (inactive) |  |  | > 100 µM (inactive) | > 100 µM (inactive) | > 100 µM (inactive) | > 100 µM (inactive) | 45.6 µM (inactive) |
| CC(=O)Nc1ccc2nncnc2c1 | > 100 µM (inactive) | > 100 µM (inactive) | > 100 µM (inactive) | > 100 µM (inactive) | > 100 µM (inactive) | > 100 µM (inactive) | > 100 µM (inactive) | > 100 µM (inactive) | > 100 µM (inactive) | > 100 µM (inactive) | > 100 µM (inactive) | > 100 µM (inactive) | > 100 µM (inactive) | > 100 µM (inactive) | > 100 µM (inactive) | > 100 µM (inactive) |  | > 100 µM (inactive) | > 100 µM (inactive) |  |
| Nc1ncnc2c1ncc(=O)n2C1CC(O)C(CO)O1 (configuration not stated) | > 100 µM (inactive) | > 100 µM (inactive) | > 100 µM (inactive) | > 100 µM (inactive) |  | > 100 µM (inactive) | > 100 µM (inactive) | > 100 µM (inactive) | > 100 µM (inactive) | > 100 µM (inactive) | > 100 µM (inactive) | 65.6 µM (inactive) | > 100 µM (inactive) | > 100 µM (inactive) | > 100 µM (inactive) | > 100 µM (inactive) | > 100 µM (inactive) | > 100 µM (inactive) | > 100 µM (inactive) | > 100 µM (inactive) |
